Results on 8 molecules are retold here after patent US6080771A, “DC107 derivatives” (Kyowa Hakko Kogyo Co., Ltd., priority 1996, dated 2000).

For data set [1], the system named is Staphylococcus aureus ATCC 6538P. As to the kind of experiment: Antimicrobial activity, agar dilution method (MIC), SA. Type of data set: cell-based. As to conditions: ATCC6538P, agar dilution, pH 7, read-out: MIC, SA. An excerpt:
| SA: Staphylococcus aureus ATCC 6538P

In data set [2] the test system is Sarcoma 180 mouse solid tumor. As to the kind of experiment: Antitumor activity against Sarcoma 180 mouse solid tumor. It is filed as in vivo, male ddY mice. To be noted: Sarcoma-180, iv, 168 h, single i.v., tumor volume on day 7 from transplant, read-out: T/C (tumor volume ratio treated/control). Here is the method: To a ddY mouse were intraperitoneally transplanted 5×10^6 sarcoma 180 cells. On the seventh day from the transplant, the cells were collected from the ascites, washed once with sterilized physiological saline, and then diluted with sterilized physiological saline to prepare a cell suspension having a concentration of 5×10^7 cells/mL. This suspension was transplanted in an amount of 0.01 mL to a subcutaneous part of the right axilla of each of male ddY mice each weighing 20±1 g.
A test compound was dissolved in physiological saline containing polyoxyethylene sorbitan monolaurate. At 24 hours after the tumor transplant, 0.2 mL of the solution was intravenously administered to the tail of each of a group of five mice.

Data set [3] deals with Enterococcus hirae ATCC 10541. As to conditions: pH 7.
Protocol: (§1) Antimicrobial activity was determined by the agar dilution method using a culture medium (pH 7) prepared by dissolving 3 g of Bacto-Tryptone (manufactured by Difco, Co.), 3 g of meat extract, 1 g of yeast extract, 1 g of glucose, and 16 g of agar in 1 l of water.
EH: Enterococcus hirae ATCC 10541
The subject of the next data set is Escherichia coli ATCC 26. Description: Antimicrobial activity, agar dilution method (MIC), EC. Type of data set: cell-based. An excerpt: | EC: Escherichia coli ATCC 26
The next data set concerns HeLa S3 cells. Description: HeLa S3 cell growth inhibition test (Neutral Red). Type of data set: cell-based. As to conditions: Homo sapiens, read-out: HeLa S3 Cell Growth Inhibition Activity, IC50. As for the experimental part:
In each well of a 96-well microtiter plate was placed 0.1 mL of HeLa S3 cells having a concentration of 8×10^3 cells/mL and prepared in an MEM culture medium containing 10% fetal bovine serum and 2 mM glutamine. After the cells were incubated overnight at 37° C. in a carbon dioxide incubator, a test compound suitably diluted with a medium was added to the wells in an amount of 0.05 mL for each well. The cells were incubated at 37° C. for 72 hours in a carbon dioxide incubator. After the culture supernatant was removed, 0.1 mL of a culture medium containing 0.02% Neutral Red was added to each well. The cells were then incubated at 37° C. for 1 hour in a carbon dioxide incubator to dye the cells. After the culture supernatant was removed, each residue was rinsed once with physiological saline and the pigment was extracted with 0.001N hydrochloric acid/30% ethanol. The absorbance at 550 nm of each extract was measured with a microplate reader. The drug concentration required for the 50% inhibition of cell growth, which is referred to as IC50, was calculated by comparing the absorbance for untreated cells with those for cells treated with the drug in known concentrations.

The subject of data set [4] is Bacillus substilis NO. 10707. As to the kind of experiment: Antimicrobial activity, agar dilution method (MIC), BS. It is filed as cell-based. To be noted: NO.10707, agar dilution, pH 7, read-out: MIC, BS. From the text:
| BS: Bacillus substilis NO. 10707

Data set [5] has as its system Klebisiella pneumoniae ATCC 10031. As to the kind of experiment: Antimicrobial activity, agar dilution method (MIC), KP. Type of data set: cell-based. To be noted: agar dilution, pH 7; read-out: MIC, KP. From the text:
| KP: Klebisiella pneumoniae ATCC 10031

Data set [6] relates to Enterococcus hirae ATCC 10541. Description: Antimicrobial activity, agar dilution method (MIC), EH. To be noted: pH 7.
Protocol: as §1
EH: Enterococcus hirae ATCC 10541
A further data set has as its system various bacteria. To be noted: background, Japanese Published Unexamined Patent Application No. 112988/89; cited from earlier work.
For data set [7] the following is noted: background, Japanese Published Unexamined Patent Application No. 112988/89; cited from earlier work.
The mark [8] stands for this setting: ATCC26, agar dilution, pH 7, read-out: MIC, EC.
Setting [9] is: ATCC26, pH 7, read-out: MIC, EC.

Values after ≈ are worked out from the molar mass of the structure shown. Where two headings read alike, the source gives them in different places.

For the molecule `COCCOCCOCC(=O)OC1/C=C(\C)CCC2(CC(=O)NC(C)c3nc(cs3)/C=C\C=C\C1=O)[S+]([O-])SC(=O)C2(C)O` (centres unmarked) [Compound 2], the MIC is 0.13 µg/mL (≈ 0.194 µM) in data set [1], 1.8 µg/mL (≈ 2.68 µM) in the data set with Escherichia coli ATCC 26 (setting [8]), 0.13 µg/mL (≈ 0.194 µM) in data set [4] and 0.23 µg/mL (≈ 0.343 µM) in [5]. For the same molecule, the response vs control in vivo at 4 mg/kg in data set [2] (4.0 mg/kg) worked out at 30%. Besides, the “MIC, EH” value in data set [3] was found to be 0.23 µg/mL (≈ 0.343 µM). The IC50 in the data set with HeLa S3 cells (HeLa S3, 72 hours, 37° C.) amounted to 0.025 µM.

As for `COCCOCCOCCOCCOCCOCC(=O)OC1/C=C(\C)CCC2(CC(=O)NC(C)c3nc(cs3)/C=C\C=C\C1=O)[S+]([O-])SC(=O)C2(C)O` (centres unmarked) [Compound 5], the MIC in data set [1] turned out to be 0.4 µg/mL (≈ 0.498 µM); in the data set with Escherichia coli ATCC 26 (setting [9]) it was 3.1 µg/mL (≈ 3.86 µM); in data set [4] it was 0.2 µg/mL (≈ 0.249 µM); in data set [5], 0.39 µg/mL (≈ 0.486 µM). In addition, the response vs control in vivo at 8 mg/kg in data set [2] was determined as 30%. For the same molecule, the “MIC, EH” value in [6] is 0.20 µg/mL (≈ 0.249 µM). Moreover, in the data set on HeLa S3 cells (HeLa S3, 72 h), the IC50 amounted to 0.067 µM.

Consider `COCCOCCOCC(=O)OC1/C=C(\C)CCC2(C(C)(O)C(=O)SCc3oc(=O)oc3C)CC(=O)N(C(C)c3nc(cs3)/C=C\C=C\C1=O)[S+]2[O-]` (centres unmarked) [Compound 12], for which the MIC was 42 µg/mL (≈ 53.6 µM) in data set [1], 4.2 µg/mL (≈ 5.36 µM) in the data set with Escherichia coli ATCC 26 (setting [8]), 42 µg/mL (≈ 53.6 µM) in data set [4] and 42 µg/mL (≈ 53.6 µM) in [5]. Also, the response vs control in vivo at 8 mg/kg in data set [2] was determined as 39%. Further, the “MIC, EH” value in data set [3] was 42 µg/mL (≈ 53.6 µM). In the data set with HeLa S3 cells (HeLa S3, 72 hours, 37° C.), the IC50 was 0.03 µM.

Take `COCCOCCOCCOCCOCC(=O)OC1/C=C(\C)CCC2(C(C)(O)C(=O)SCc3oc(=O)oc3C)CC(=O)N(C(C)c3nc(cs3)/C=C\C=C\C1=O)[S+]2[O-]` (centres unmarked) [Compound 14]: the minimal inhibitory concentration (MIC) in [1] was found to be 5.2 µg/mL (≈ 5.97 µM); in [4] it was 2.6 µg/mL (≈ 2.99 µM). The “MIC, EH” value in [3] turned out to be 2.6 µg/mL (≈ 2.99 µM). The half-inhibitory concentration (IC50) in the data set on HeLa S3 cells (HeLa S3, 72 hours, 37° C.) turned out to be 0.035 µM.

Consider `COCCOCCOCC(=O)OCCOCCOCCOCCOCC(=O)OC1/C=C(\C)CCC2(C(C)(O)C(=O)SCc3oc(=O)oc3C)CC(=O)N(C(C)c3nc(cs3)/C=C\C=C\C1=O)[S+]2[O-]` (centres unmarked) [Compound 39], for which the MIC in data set [1] worked out at 5.2 µg/mL (≈ 5.11 µM); in [4], 2.6 µg/mL (≈ 2.56 µM); in data set [5], 2.6 µg/mL (≈ 2.56 µM). The response vs control in vivo at 16 mg/kg in [2] (16 mg/kg) is 38%. Also, the “MIC, EH” value in [3] was determined as 1.3 µg/mL (≈ 1.28 µM).

As for `CC(=O)OC[C@H]1OC(OC2/C=C(\C)CCC3(CC(=O)NC(C)c4nc(cs4)/C=C\C=C\C2=O)[S+]([O-])SC(=O)C3(C)O)C[C@@H](OC(C)=O)[C@@H]1OC(C)=O` (some centres unmarked) [Compound 53], the MIC came to 0.098 µg/mL (≈ 0.125 µM) in data set [1], 25 µg/mL (≈ 31.9 µM) with Escherichia coli ATCC 26 (setting [9]), 0.098 µg/mL (≈ 0.125 µM) in data set [4] and 1.6 µg/mL (≈ 2.04 µM) in data set [5]. Besides, the “MIC, EH” value in data set [6] was determined as 0.20 µg/mL (≈ 0.255 µM). The IC50 in the data set with HeLa S3 cells (HeLa S3, 72 h) stood at 0.016 µM.

Take `CC(=O)O[C@@H]1C=CC(OC2/C=C(\C)CCC3(CC(=O)NC(C)c4nc(cs4)/C=C\C=C\C2=O)[S+]([O-])SC(=O)C3(C)O)O[C@H]1C` (some centres unmarked) [Compound 57]: the MIC in data set [1] came to 0.13 µg/mL (≈ 0.196 µM); with Escherichia coli ATCC 26 (setting [9]), 0.52 µg/mL (≈ 0.782 µM); in data set [4], 0.033 µg/mL (≈ 0.0496 µM); in data set [5], 0.26 µg/mL (≈ 0.391 µM). Besides, in data set [6], the “MIC, EH” value was determined as 0.13 µg/mL (≈ 0.196 µM). The IC50 with HeLa S3 cells (HeLa S3, 72 h) came out at 0.016 µM.

For the molecule `C/C1=C\C(O)C(=O)/C=C/C=C\c2csc(n2)C(C)NC(=O)CC2(CC1)[S+]([O-])SC(=O)C2(C)O` (centres unmarked) [DC107], the antimicrobial activity entry in the data set on various bacteria is listed as “antimicrobial activity against various bacteria”. Besides, the antitumor activity entry in data set [7] is listed as “antitumor activity”.
